# According to ChEMBL document CHEMBL1201862, “PubChem BioAssay data set” (2004):
#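 48-hour exposure; five concentrations; linearly interpolated endpoints. GI50 marks 50% less growth.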 The source made the active and inactive calls. Rule as the data show it: active = GI50 up to about 1.1 µM and inactive = higher.
# How the values were obtained:
# Assay in all cases: DTP human tumour cell line panel, 48 h
# HT-29 = test system: HT-29
# NCI-H522 = test system: NCI-H522
# MOLT-4 = test system: MOLT-4
# SK-MEL-28 = test system: SK-MEL-28
# HCC 2998 = test system: HCC 2998
# U-251 = test system: U-251
# NCI-H460 = test system: NCI-H460
# RPMI-8226 = test system: RPMI-8226
# SF-295 = test system: SF-295
# NCI/ADR-RES = test system: NCI/ADR-RES
# LOX IMVI = test system: LOX IMVI
# SN12C = test system: SN12C
# NCI-H23 = test system: NCI-H23
# COLO 205 = test system: COLO 205
# OVCAR-4 = test system: OVCAR-4
# UACC-257 = test system: UACC-257
# SNB-19 = test system: SNB-19
# HCT-15 = test system: HCT-15
# HOP-62 = test system: HOP-62
# M14 = test system: M14
SMILES,GI50 (HT-29),GI50 (NCI-H522),GI50 (MOLT-4),GI50 (SK-MEL-28),GI50 (HCC 2998),GI50 (U-251),GI50 (NCI-H460),GI50 (RPMI-8226),GI50 (SF-295),GI50 (NCI/ADR-RES),GI50 (LOX IMVI),GI50 (SN12C),GI50 (NCI-H23),GI50 (COLO 205),GI50 (OVCAR-4),GI50 (UACC-257),GI50 (SNB-19),GI50 (HCT-15) [µM],GI50 (HOP-62),GI50 (M14)
O=c1cc[nH]c(=O)[nH]1 [URACIL],509 µM (inactive),371 µM (inactive),550 µM (inactive),327 µM (inactive),322 µM (inactive),370 µM (inactive),305 µM (inactive),> 946 µM (inactive),382 µM (inactive),> 562 µM (inactive),375 µM (inactive),502 µM (inactive),147 µM (inactive),187 µM (inactive),> 656 µM (inactive),804 µM (inactive),431 µM (inactive),798,340 µM (inactive),
SC1=NC2=C(CSC/C2=C\c2cccc(Br)c2)C(c2cccc(Br)c2)N1 (configuration not stated),42.3 µM (inactive),> 100 µM (inactive),38.7 µM (inactive),> 100 µM (inactive),> 100 µM (inactive),> 100 µM (inactive),55.6 µM (inactive),64.7 µM (inactive),> 100 µM (inactive),61.9 µM (inactive),> 100 µM (inactive),> 100 µM (inactive),63.4 µM (inactive),36.2 µM (inactive),93.5 µM (inactive),> 100 µM (inactive),> 100 µM (inactive),> 100,> 100 µM (inactive),46.2 µM (inactive)
O=S1(=O)C[C@@H](NCc2ccccc2)[C@H](NCc2ccccc2)C1,> 100 µM (inactive),73.6 µM (inactive),> 100 µM (inactive),> 100 µM (inactive),> 100 µM (inactive),> 100 µM (inactive),> 100 µM (inactive),> 100 µM (inactive),> 100 µM (inactive),> 100 µM (inactive),> 100 µM (inactive),> 100 µM (inactive),> 100 µM (inactive),> 100 µM (inactive),> 100 µM (inactive),> 100 µM (inactive),> 100 µM (inactive),,37.4 µM (inactive),53.5 µM (inactive)
CC(C)C(/C=C/c1ccc(Cl)cc1)=N\NC(=O)N/N=C(/C=C/c1ccc(Cl)cc1)C(C)C,42.3 µM (inactive),> 10 µM (inactive),48.8 µM (inactive),50.9 µM (inactive),83.4 µM (inactive),16.9 µM (inactive),23 µM (inactive),> 100 µM (inactive),22.9 µM (inactive),26.7 µM (inactive),> 10 µM (inactive),18.4 µM (inactive),21.9 µM (inactive),45.3 µM (inactive),19.6 µM (inactive),57.5 µM (inactive),19.8 µM (inactive),71.4,27.9 µM (inactive),24.2 µM (inactive)
CC1OC1C(=O)C1(O)C(C)C(O)C23OC2(C(O)c2c(O)cccc2C3=O)C1O (configuration not stated) [CERVICARCIN],0.173 µM (active),0.0964 µM (active),0.0415 µM (active),0.182 µM (active),0.1 µM (active),0.232 µM (active),0.118 µM (active),0.0847 µM (active),0.226 µM (active),0.207 µM (active),0.2 µM (active),0.0557 µM (active),0.0938 µM (active),0.0706 µM (active),0.032 µM (active),0.1 µM (active),0.153 µM (active),0.195,0.0895 µM (active),
